Key:
[1] = ITC: ligand exchange of Cu(II) between 2HQ and chelates (Examples III, Table 2)
Experimental: Isothermal titration calorimetry (ITC) measurements were used to obtain the equilibrium constant (K, also referred to as the exchange constant) of the ligand exchange between the ionophore and the agent-entrapping compound, here a chelator. […] The ligand exchange was monitored by the heat of reaction from each injection in the ITC experiment as determined by peak integration. The ligand exchange constant (K) was determined by fitting the heat of reaction. The binding isotherm is defined by the equilibrium: Cu(2HQ)2+chelate ? Cu(chelate)+2(2HQ) (1)
The ITC measurements were carried out at 25° C. and 50° C. using isothermal titration calorimetry (iTC200, Micro-Cal, GE). The instrument was electrically calibrated by means of a standard electric pulse as recommended by the manufacturer. A 40 μL syringe was used for the titration, mixing was effected by stirring the syringe at 1000 rpm during equilibration and experiments. Typically, 20 injections of 2 μL each were performed with a 150 s interval between injections in a single titration. The reference cell of the calorimeter filled with water acts as a thermal reference to the sample cell. […] All solutions were degassed before titrations to reduce noise.
The ligand exchange constant (K) and the ligand exchange enthalpy (ΔH) are determined by as fitting parameters using a binding isotherm based on reaction scheme (1).

[2] = ITC: ligand exchange of 2HQ with DOTA complexed to Cu(II) (Examples II); assay type: binding
[3] = ITC: extraction of Cu(II) from 2-hydroxyquinoline by DOTA (Examples I); assay type: binding; conditions: Milli-Q water pH 7.4, 25° C.
Experimental: Isothermal titration calorimetry (ITC) measurements are designed to obtain primarily the enthalpy of each complex formation and their stoichiometries. The heats of each reaction are determined by integration of the peaks observed. After the contribution from the heat of dilution of each injection is subtracted, the heat is plotted against the molar ratio of the measured components. The binding constant (Ka, interchangeably referred to as the ligand exchange constant, K), enthalpy of binding) (ΔH^0), and stoichiometry (n) of the formation of complex are determined by fitting the binding isotherm against the binding equation using an independent binding model.
The exchange of 2-hydroxyquinoline with DOTA are shown as heat spike plots (A) and integrated heat plots (B). Experimental conditions: 0.5 mM Cu(2-hydroxyquinoine)2 is titrated with 10-μL injections of 5 mM DOTA. All solutions were prepared in Milli-Q water at pH=7.4.

[4] = In vivo PET/CT biodistribution and blood concentration-time profile; parameters: species or system NMRI nude mice; conditions: i.v., mice, PET ROI on left ventricle
Experimental: Human colon adenocarcinoma (HT29) tumor cells (2×10^6 cells) were inoculated in the left and right flank of female NMRI (Naval Medical Research Institute) nude mice and allowed to grow 4 weeks in the mice to establish the malignant solid tumor. ^64Cu-liposomes for in vivo studies were prepared as described above and consisted of DSPC/CHOL/DSPE-PEG-2000 in the molar ratio 55:40:5 and contained the chelating agent (DOTA) in a concentration of 10 mM, and at a pH of 4.0 in the interior of the liposomes. […]
After i.v. administration of ^64Cu-liposome or ^64Cu-DOTA the animals were subject to micro-PET/CT imaging at different time points: 1, 4, 12 and 24 h. With PET imaging the amount of radioactivity specifically sequestered in a region of interest (ROI) on an image can be calculated allowing direct quantitative determinations based on differences in signal intensity. After PET- and CT images were reconstructed the images were fused with Inveon Software (Siemens), and PET data were analyzed by defining ROIs on selected tissues. PET values are expressed as mean Becquerel ml^−1 (Bq ml^−1), and ROIs were drawn manually over each organ of interest. […]
FIG. 11 is a time-activity curve (TAC) illustrating the blood concentration-time pro-file of ^64Cu-liposome and ^64Cu-DOTA. […] The total injected activity dose was measured by drawing one ROI around the animal 4 min post-injection. […]

| Compound | Ligand exchange constant (K), exchange of Cu(II) from 2HQ to chelate ([1]; pH 5.9 at 25° C.) | ligand exchange enthalpy (ΔH) ([1]; pH 5.9 at 25° C.) | Ligand exchange constant (K), exchange of Cu(II) from 2HQ to chelate ([1]; pH 5.9 at 50° C.) | ligand exchange enthalpy (ΔH) ([1]; pH 5.9 at 50° C.) [kcal/mol] | Ligand exchange constant (K), exchange of Cu(II) from 2HQ to chelate ([1]; pH 4.0 at 25° C.) | ligand exchange enthalpy (ΔH) ([1]; pH 4.0 at 25° C.) [kcal/mol] | Ligand exchange constant (K), exchange of Cu(II) from 2HQ to chelate ([1]; pH 4.0 at 50° C.) | ligand exchange enthalpy (ΔH) ([1]; pH 4.0 at 50° C.) [kcal/mol] | exchange constant, K (Cu(2HQ)2 + DOTA) ([2]; acetate buffer at pH 4.0, 25° C.) | exchange constant, K (Cu(2HQ)2 + DOTA) ([2]; pH 5.9 in MES buffer, 25° C.) | binding affinity to Cu(II) compared with 2-hydroxyquinoline [3] | blood clearance [4] |
| --- | --- | --- | --- | --- | --- | --- | --- | --- | --- | --- | --- | --- |
| C1CNCCNCCNCCN1 [Cyclen, 1,4,7,10-tetraazacyclododecane] | ^ | ^ | 1.4 × 10^−3 | -5.5 | – | – | – | – | – | – | – | – |
| O=C(O)CN1CCN(CC(=O)O)CCN(CC(=O)O)CCN(CC(=O)O)CC1 [DOTA, 1,4,7,10-tetraazacyclododecane-1,4,7,10-tetraacetic acid] | 6.1 × 10^−4 | -8.0 kcal/mol | 1.0 × 10^−3 | -6.3 | 1.3 × 10^−2 | 3.8 | 8.7 × 10^−3 | 4.0 | (1.0±0.3)·10^−2 | (5.2±1.6)·10^−4 | much higher binding affinity to Cu(II) than 2-hydroxyquinoline | – |
| O=C([O-])CN1CCN(CC(=O)[O-])CCN(CC(=O)O)CCN(CC(=O)O)CC1.[64Cu+2] [^64Cu-DOTA] | – | – | – | – | – | – | – | – | – | – | – | cleared rapidly after administration through renal filtration |
| O=P(O)(O)CN1CCN(CP(=O)(O)O)CCN(CP(=O)(O)O)CCN(CP(=O)(O)O)CC1 [DOTP, 1,4,7,10-tetraazacyclododecane-1,4,7,10-tetra(methanephosphonic acid)] | – | – | – | – | 2.5 × 10^−3 | 2.4 | 2.9 × 10^−3 | 3.4 | – | – | – | – |
| O=C(O)CN1CCCN(CC(=O)O)CCN(CC(=O)O)CCCN(CC(=O)O)CC1 [TETA, 1,4,8,11-tetraazacyclotetradecane-1,4,8,11-tetraacetic acid] | 3.0 × 10^−3 | -4.9 kcal/mol | 2.8 × 10^−2 | -4.7 | 1.2 × 10^−4 | 0.5 | – | – | – | – | – | – |

From patent publication US8920775B2, “Loading technique for preparing radionuclide containing nanoparticles” (Technical University of Denmark, priority 2009, dated 2014)
